Laboratory results taken from US9765035B2 (priority 2013, dated 2017).

Target: T1, Human CARM1 (PRMT4) (Homo sapiens, UniProt Q86X55)
T1 construct: Flag-CARM1-His; made in house; host or cells: HEK 293F cells (BacMam baculovirus)
T1 sequence (Q86X55 1-585 isoform Q86X55-1): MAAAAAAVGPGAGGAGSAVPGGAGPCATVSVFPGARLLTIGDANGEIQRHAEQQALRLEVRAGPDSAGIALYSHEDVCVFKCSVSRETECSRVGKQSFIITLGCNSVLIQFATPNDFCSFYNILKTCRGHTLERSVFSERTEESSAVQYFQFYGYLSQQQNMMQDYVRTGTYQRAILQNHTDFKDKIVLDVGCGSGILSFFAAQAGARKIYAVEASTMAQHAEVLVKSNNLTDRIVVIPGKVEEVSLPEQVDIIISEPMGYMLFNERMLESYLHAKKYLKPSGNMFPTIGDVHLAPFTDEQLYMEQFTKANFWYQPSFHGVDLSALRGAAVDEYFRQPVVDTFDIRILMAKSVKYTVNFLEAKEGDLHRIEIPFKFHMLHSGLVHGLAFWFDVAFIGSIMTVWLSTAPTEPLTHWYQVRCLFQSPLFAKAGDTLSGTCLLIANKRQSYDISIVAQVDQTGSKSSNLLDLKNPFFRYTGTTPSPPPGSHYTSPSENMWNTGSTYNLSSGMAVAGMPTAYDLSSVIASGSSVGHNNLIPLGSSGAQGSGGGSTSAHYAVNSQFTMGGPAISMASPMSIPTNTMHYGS
Test: CARM1 Biochemical Assay
Excerpt: General Materials. S-adenosylmethionine (SAM), S-adenosylhomocysteine (SAH), bicine, Tween20, dimethylsulfoxide (DMSO), bovine skin gelatin (BSG), sodium butyrate and Tris(2-carboxyethyl)phosphine hydrochloride solution (TCEP) were purchased from Sigma-Aldrich at the highest level of purity possible. ^3H-SAM was purchase from American Radiolabeled Chemicals with a specific activity of 80 Ci/mmol. 384-well streptavidin Flashplates were purchased from PerkinElmer.
Substrates. Peptide representative of human histone H3 residues 16-30 was synthesized with an N-terminal linker-affinity tag motif and a C-terminal amide cap by 21st Century Biochemicals. The peptide was purified by high-performance liquid chromatography (HPLC) to greater than 95% purity and confirmed by liquid chromatography mass spectrometry (LC-MS). The sequence was Biot-Ahx-[…]-amide and contained a monomethylated arginine at position 26 (SEQ ID NO.: 14).
Molecular Biology: Human CARM1 (PRMT4) (NM_199141.1) transcript clone was amplified from an HEK 293 cDNA library, incorporating a flanking 5′ sequence encoding a FLAG tag ([…]) (SEQ ID NO.:6) fused directly to Ala 2 of CARM1 and 3′ sequence encoding a hexa His sequence ([…]) (SEQ ID NO.: 15) fused directly to Ser 608. The gene sequence encoding isoform1 containing a deletion of amino acids 539-561 was amplified subsequently and subcloned into pFastBacMam (Viva Biotech).
Protein Expression. Recombinant baculovirus were generated according to Bac-to-Bac kit instructions (Life Technologies). […] Infections were carried out at 37° C. for 48 hours, harvested by centrifugation, and stored at −80° C. for purification.
Protein Purification. […] Column was washed with 500 mM NaCl in buffer A and Flag-CARM1-His was eluted with 200 ug/ml FLAG peptide in buffer A. Pooled fractions were dialyzed in 20 mM Tris, 150 mM NaCl, 5% glycerol and 1 mM DTT, pH 7.8. The purity of recovered protein was 94.
General Procedure for CARM1 Enzyme Assays on Peptide Substrates. The assays were all performed in a buffer consisting of 20 mM Bicine (pH=7.6), 1 mM TCEP, 0.005% BSG, and 0.002% Tween 20, prepared on the day of use. Compounds in 100% DMSO (1 ul) were spotted into a polypropylene 384-well V-bottom plates (Greiner) using a Platemate Plus outfitted with a 384-channel head (Thermo Scientific). DMSO (1 ul) was added to Columns 11, 12, 23, 24, rows A-H for the maximum signal control and 1 ul of SAH, a known product and inhibitor of CARM1, was added to columns 11, 12, 23, 24, rows I-P for the minimum signal control. A cocktail (40 ul) containing the CARM1 enzyme was added by Multidrop Combi (Thermo-Fisher). The compounds were allowed to incubate with CARM1 for 30 min at room temperature, then a cocktail (10 ul) containing ^3H-SAM and peptide was added to initiate the reaction (final volume=51 ul). The final concentrations of the components were as follows: CARM1 was 0.25 nM, ^3H-SAM was 30 nM, peptide was 250 nM, SAH in the minimum signal control wells was 1 mM, and the DMSO concentration was 2%. The assays were stopped by the addition of non-radiolabeled SAM (10 ul) to a final concentration of 300 uM, which dilutes the ^3H-SAM to a level where its incorporation into the peptide substrate is no longer detectable. 50 ul of the reaction in the 384-well polypropylene plate was then transferred to a 384-well Flashplate and the biotinylated peptides were allowed to bind to the streptavidin surface for at least 1 hour before being washed once with 0.1% Tween20 in a Biotek EL×405 plate washer. The plates were then read in a PerkinElmer TopCount plate reader to measure the quantity of ^3H-labeled peptide bound to the Flashplate surface, measured as disintegrations per minute (dpm) or alternatively, referred to as counts per minute (cpm).
Where dpm=disintegrations per minute, cmpd=signal in assay well, and min and max are the respective minimum and maximum signal controls. […]

[1] = PRMT4 IC50, biochemical evaluation, CARM1 (PRMT4), peptide substrate
[2] = PRMT4 biochemical evaluation (numerical), single experiment or average of multiple experiments

| Structure (SMILES) | IC50 [1] [nM] | IC50 [2] [nM] |
| --- | --- | --- |
| CNCCN(C)Cc1n[nH]c2ccc(OC3CCCCC3)cc12 [Compound 18] | 101 to 1000 | – |
| CNCCN(C)Cc1n[nH]c2ccc(Oc3cccc(OC)c3)cc12 [Compound 22] | 101 to 1000 | – |
| CNCCN(C)Cc1n[nH]c2ccc(OCc3ccc(C(C)=O)cc3)cc12 [Compound 23] | 101 to 1000 | – |
| CNCCN(C)Cc1n[nH]c2ccc(OC3CCOC3)cc12 (centres unmarked) [Compound 25, N^1,N^2-dimethyl-N^1-((5-((tetrahydrofuran-3-yl)oxy)-1H-indazol-3-yl)methyl)ethane-1,2-diamine] | 101 to 1000 | 932 |
| CNCCN(C)Cc1n[nH]c2cccc(OCCC(C)C)c12 [Compound 31] | – | 423 |
| CNCCN(C)Cc1nn(C)c2ccc(OCc3ccc(C#N)cc3)cc12 [Compound 32] | 101 to 1000 | 188 |
| CNCCN(C)Cc1c2cc(OCc3ccc(C#N)cc3)ccc2nn1C(C)C [Compound 34] | 3010 to 10000 | 310 |
| CNCCN(C)Cc1n[nH]c2ccc(OC)cc12 [Compound 35] | 3010 to 10000 | – |
| CNCCN(C)Cc1n[nH]c2ccc(O)cc12 [Compound 36, 3-((methyl(2-(methylamino)ethyl)amino)methyl)-1H-indazol-5-ol] | 3010 to 10000 | 6130 |
| CNCCN(C)Cc1n[nH]c2ccc(Oc3ccc(C#N)cc3)cc12 [Compound 37] | 1010 to 3000 | > 10000 |
| CNCCN(C)Cc1nn(C2CCN(C(C)=O)CC2)c2ccc(OCc3ccc(C#N)cc3)cc12 [Compound 38] | 1010 to 3000 | > 10000 |
| CNCCN(C)Cc1n[nH]c2cccc(OCCC(O)CO)c12 (centres unmarked) [Compound 40] | 3010 to 10000 | 2110 |
| CNCCN(C)Cc1n[nH]c2cccc(OCCCC(O)CO)c12 (centres unmarked) [Compound 41, 5-((3-((methyl(2-(methylamino)ethyl)amino)methyl)-1H-indazol-4-yl)oxy)pentane-1,2-diol] | 1010 to 3000 | 240 |
| CNCCN(C)Cc1n[nH]c2ccc(C(C)C)cc12 [Compound 42, N^1-((5-isopropyl-1H-indazol-3-yl)methyl)-N^1,N^2-dimethylethane-1,2-diamine] | 1010 to 3000 | 4050 |
| CNCCN(C)Cc1n[nH]c2ccc(N3CCC4(CCCCC4)CC3)cc12 [Compound 43, N^1-((5-(3-azaspiro[5.5]undecan-3-yl)-1H-indazol-3-yl)methyl)-N^1,N^2-dimethylethane-1,2-diamine] | 101 to 1000 | 1780 |
| CNCCN(C)Cc1n[nH]c2ccc(C3CCOCC3)cc12 [Compound 44, N^1,N^2-dimethyl-N^1-((5-(tetrahydro-2H-pyran-4-yl)-1H-indazol-3-yl)methyl)ethane-1,2-diamine] | 101 to 1000 | 1010 |
| CNCCN(C)Cc1n[nH]c2ccc(C3=CCOCC3)cc12 [Compound 45] | 101 to 1000 | 160 |
| CNCCN(C)Cc1n[nH]c2ccc(N3CCCCC3)cc12 [Compound 46, N^1,N^2-dimethyl-N^1-((5-(piperidin-1-yl)-1H-indazol-3-yl)methyl)ethane-1,2-diamine] | 101 to 1000 | 259 |
| CNCCN(C)Cc1n[nH]c2ccc(C3CCCCC3)cc12 [Compound 47, N^1-((5-cyclohexyl-1H-indazol-3-yl)methyl)-N^1,N^2-dimethylethane-1,2-diamine] | 101 to 1000 | 370 |
| CNCCN(C)Cc1n[nH]c2ccc(C3=CCCCC3)cc12 [Compound 48] | 101 to 1000 | 440 |
| CNCCN(C)Cc1n[nH]c2ccc(OCC3CCOCC3)cc12 [Compound 50] | 3010 to 10000 | 245 |
| CNCCN(C)Cc1n[nH]c2ccc(OCC3CCN(C(C)=O)CC3)cc12 [Compound 51] | 3010 to 10000 | > 10000 |
| CNCCN(C)Cc1c2cc(OCc3ccc(C#N)cc3)ccc2nn1C1CCOCC1 [Compound 53] | 3010 to 10000 | > 10000 |
| CNCCN(C)Cc1n[nH]c2ccc(OC3CCN(C(C)=O)CC3)cc12 [Compound 58, 1-(4-((3-((methyl(2-(methylamino)ethyl)amino)methyl)-1H-indazol-5-yl)oxy)piperidin-1-yl)ethan-1-one] | 1010 to 3000 | 248 |
| CNCCN(C)Cc1n[nH]c2ccc(Oc3ccc(OC)cc3)cc12 [Compound 59] | < 100 | 313 |

Continued, values first:

| IC50 [1] [nM] | IC50 [2] [nM] | Structure (SMILES) |
| --- | --- | --- |
| – | 153 | CNCCN(C)Cc1n[nH]c2ccc(OCc3ccn(C)n3)cc12 [Compound 20] |
| < 100 | 115 | CNCCN(C)Cc1n[nH]c2ccc(Oc3ccccc3OC)cc12 [Compound 24] |
| 101 to 1000 | 35.1 | CNCCN(C)Cc1n[nH]c2ccc(Oc3cccc(C)c3)cc12 [Compound 26] |
| 101 to 1000 | 390 | CNCCN(C)Cc1n[nH]c2ccc(Oc3cccc(Cl)c3)cc12 [Compound 27, N^1-((5-(3-chlorophenoxy)-1H-indazol-3-yl)methyl)-N^1,N^2-dimethylethane-1,2-diamine] |
| 1010 to 3000 | 260 | CNCCN(C)Cc1n[nH]c2ccc(Oc3cccc(C#N)c3)cc12 [Compound 28] |
| 101 to 1000 | 446 | CNCCN(C)Cc1n[nH]c2ccc(OC3CCOCC3)cc12 [Compound 29, N^1,N^2-dimethyl-N^1-((5-((tetrahydro-2H-pyran-4-yl)oxy)-1H-indazol-3-yl)methyl)ethane-1,2-diamine] |
| 101 to 1000 | 2340 | CNCCN(C)Cc1n[nH]c2ccc(Oc3ccccc3Cl)cc12 [Compound 30] |
| 101 to 1000 | 2880 | CNCCN(C)Cc1n[nH]c2ccc(Oc3ccc(C(F)(F)F)cc3)cc12 [Compound 39] |
| 3010 to 10000 | 606 | CNCCN(C)Cc1n[nH]c2ccc(Oc3ccccc3C(F)(F)F)cc12 [Compound 49] |
| 3010 to 10000 | > 10000 | CNCCN(C)Cc1n[nH]c2ccc(OCC3CCCC3)cc12 [Compound 52] |
| 3010 to 10000 | > 10000 | CNCCN(C)Cc1n[nH]c2ccc(OCC3CCCCC3)cc12 [Compound 54] |
| 101 to 1000 | > 10000 | CNCCN(C)Cc1n[nH]c2ccc(Oc3ccc(C)cc3)cc12 [Compound 55] |
| 101 to 1000 | > 10000 | CNCCN(C)Cc1n[nH]c2ccc(Oc3ccccc3OC(C)C)cc12 [Compound 56] |
| 101 to 1000 | 333 | CNCCN(C)Cc1n[nH]c2ccc(Oc3ccc(Cl)cc3)cc12 [Compound 57] |
| 101 to 1000 | 1770 | CNCCN(C)Cc1n[nH]c2ccc(Oc3ccccc3C)cc12 [Compound 60] |
